Results taken from patent publication US20240041856A1, “LIQUID APIXABAN FORMULATION IN SMALL DOSE VOLUME” (DAFECHEM LIMITED, priority 2020, published 2024).

Assays:
[1] = Stability of apixaban in propylene glycol on heating; type: physicochemical; settings: temperature increase up to 90° C.
Procedure: (§1) However, for achieving solutions of apixaban with concentration of more than 0.5 mg/mL in a vehicle comprising at least 35% (w/v) propylene glycol based on the total formulation, heating within the range of 25-90° C. is applied so to achieve full and quick solubilization of apixaban.

[2] = Solubility of apixaban in propylene glycol based vehicles; type: physicochemical
Procedure: as §1
Concentrated solutions of apixaban are necessary in order to achieve low dosage volumes. The temperature of the mixture of apixaban and optionally co-solvents can be up to 90° C.

COc1ccc(-n2nc(C(N)=O)c3c2C(=O)N(c2ccc(N4CCCCC4=O)cc2)CC3)cc1 [Apixaban, 1-(4-methoxyphenyl)-7-oxo-6-[4-(2-oxopiperidin-1-yl)phenyl]-4,5,6,7-tetrahydro-1H-pyrazolo[3,4c]pyridine-3-carboxamide]
Stability of apixaban in propylene glycol [1]: stable
Dissolution of apixaban in the vehicle ([2]; 0.25 mg/mL apixaban, vehicle with at least 35% (w/v) propylene glycol, room temperature): dissolves freely
Most concentrated apixaban solutions prepared ([2]; dissolving at temperature up to 90° C. in at least 35% (w/v) of propylene glycol): up to 10 mg/mL
